Source: patent US20100056552A1, “COMBINATION FOR USE IN THE TREATMENT OF INFLAMMATORY DISORDERS” (priority 2007, published 2010)

Key:
[1] = MM6 cell growth/viability (WST-1 reagent); type: cell-based; conditions: human, MonoMac-6 (MM6) macrophage cell line, n=3, read-out: viability of MM6 cells compared to untreated MM6 cells; for viability at 48 h, 10 μM: drug alone 10 μM
Protocol: (§1) Cells from the human macrophage cell-line MonoMac-6 (MM6) (Ziegler-Heitbrock et al, Int. J. Cancer, 41, 456 (1988)) were cultured (37° C./5% CO2) in RPMI-1640 medium supplemented with 1 mM sodium pyruvate, × nonessential amino acids, 10 μg/mL insulin, 1 mM oxalacetic acid, 100 units/mL penicillin, 100 μg/mL streptomycin and 5% (v/v) fetal bovine serum. At the start of the experiment, MM6 cells were seeded in 96-well plates at a density of 1×10^5 cells/mL (100 μL per well in cell the viability experiments, and 150 μL per well in the TNF release experiments—see below).
(§2) The MM6 cells were treated (incubation conditions as above) with indicated final concentrations of the test drugs for 48 hours prior to quantification of cell viability/growth or stimulation with phorbol-12-myristate-13-acetate (PMA; Sigma Aldrich, Stockholm, Sweden) followed by measurement of PMA-induced TNF-release (see below for details).
MM6 cell growth/viability was measured using the Cell Proliferation Reagent WST-1 (Roche Diagnostics Scandinavia AB, Bromma, Sweden). The WST-1 reagent is designed to be used for spectrophotometric quantification of e.g. cell growth and viability and. was used according to the manufacturers' instructions.
(§3) Stock solutions of suplatast (tosylate salt purchased from American Custom Chemicals Corporation, San Diego, USA) and rosuvastatin (sodium salt; rosuvastatin was extracted and purified from commercially available Crestor® tablets and isolated as sodium salt as described in Bioorganic & Medicinal Chemistry, Vol. 5, No. 5, pp 437-444, 1997) were made in sterile saline.

[2] = test system: MonoMac-6 (MM6) cells; assay: PMA-induced TNF release from MonoMac-6 macrophages (Human TNF ELISA); type: cell-based; conditions: n=2; for mean TNF concentration after PMA stimulation: 48 h treatment, then PMA 10 ng/mL 5 h, untreated cells 41.1 pg/mL
Protocol: as §1, §2
To stimulate formation and release of tumor necrosis factor (TNF), the MM6 cells were incubated (37° C./5% CO2) for five hours (in RPMI-1640 with 5% fetal bovine serum with supplements as above) with PMA at a final concentration of 10 ng/mL.
After spinning down the cells after the different MM6 incubations/stimulations (see above and below), the concentrations of TNF in the supernatants were quantitated using Human TNF ELISA Kit II from BD Biosciences—Pharmingen (San Diego, USA) according to instructions supplied by the manufacturer.
as §3

Structure (SMILES)	viability at 48 h, 1 μM ([1]; drug alone 1 μM) [%]	viability at 48 h, 10 μM [1] [%]	mean TNF concentration after PMA stimulation ([2]; drug alone 1 μM) [pg/mL]	decrease in mean TNF concentration compared to the untreated cells ([2]; drug alone 1 μM) [%]	mean TNF concentration after PMA stimulation ([2]; drug alone 10 μM) [pg/mL]	decrease in mean TNF concentration compared to the untreated cells ([2]; drug alone 10 μM) [%]	viability at 48 h, 30 μM ([1]; drug alone 30 μM) [%]	mean TNF concentration after PMA stimulation ([2]; drug alone 30 μM) [pg/mL]
CCOCC(O)COc1ccc(NC(=O)CC[S+](C)C)cc1 (stereo not drawn) [suplatast]	94	92	39.6	3.8	34.8	15.4	–	–
CC(C)c1nc(N(C)S(C)(=O)=O)nc(-c2ccc(F)cc2)c1/C=C/[C@@H](O)C[C@@H](O)CC(=O)O [rosuvastatin]	–	105	–	–	76.7	–	102	84.0
CC(C)c1c(C(=O)Nc2ccccc2)c(-c2ccccc2)c(-c2ccc(F)cc2)n1CC[C@@H](O)C[C@@H](O)CC(=O)O [atorvastatin]	–	–	–	–	133.6	–	–	59.7
